From patent US4346076A, “Bis-tetrazoylmethyl substituted cephalosporin antibiotics” (Eli Lilly and Company, priority 1980, dated 1982)
≈ marks a conversion by molar mass, not a printed value. Where two headings read alike, the source gives them in different places.

Assays:
Experiment in all cases: in vitro antibacterial activity, agar dilution
Type in all cases: cell-based
Streptococcus Group D = conditions: read-out: Minimum Inhibitory Concentration
Description: (§1) The bis-tetrazol-thiomethyl substituted cephalosporins of this invention are broad spectrum antibiotics which inhibit the growth of both gram positive and gram negative microorganisms which are pathogenic to man and animals. […] The following Table 2 lists the minimum inhibitory concentrations of representative compounds of the invention.
(§2) The data in TABLE 2 were obtained in the agar dilution test method using Mueller-Hinton agar containing two percent Supplement C (Difco). Serial two-fold dilutions were run with the highest concentration on test at 128 mcg/ml.

[1] = tested on: Bordetella bronchoseptica; conditions: strain 16, read-out: Minimum Inhibitory Concentration
Description: as §1, §2

Citrobacter freundii = conditions: strain CF17, read-out: Minimum Inhibitory Concentration
Description: as §1, §2

Enterobacter aerogenes = conditions: for MIC: Klebsiella aerogenes, read-out: Minimum Inhibitory Concentration
Description: as §1, §2

Enterobacter cloacae = tested on: Enterobacter cloacae
Description: as §1, §2

Serratia marcescens = tested on: Serratia marcescens
Description: as §1, §2

Haemophilus influenzae = conditions: for MIC: Haemophilus influenzae, read-out: Minimum Inhibitory Concentration
Description: as §1, §2

Salmonella sp. = tested on: Salmonella sp.
Description: as §1, §2

Pseudomonas aeruginosa = tested on: Pseudomonas aeruginosa
Description: as §1, §2

[2] = tested on: Staphylococcus epidermidis
Description: as §1, §2

Streptococcus pneumoniae = conditions: strain PARK, read-out: Minimum Inhibitory Concentration
Description: as §1, §2

Escherichia coli = tested on: Escherichia coli
Description: as §1, §2

Staphylococcus aureus = tested on: Staphylococcus aureus
Description: as §1, §2

Proteus inconstans = conditions: Providencia alcalifaciens; strain PR33; read-out: Minimum Inhibitory Concentration
Description: as §1, §2

Shigella sonnei = conditions: strain N9, read-out: Minimum Inhibitory Concentration
Description: as §1, §2

Streptococcus Group A = conditions: strain C203; read-out: Minimum Inhibitory Concentration
Description: as §1, §2

Proteus rettgeri = conditions: Providencia rettgeri, read-out: Minimum Inhibitory Concentration
Description: as §1, §2

Proteus morganii = conditions: Morganella morganii, read-out: Minimum Inhibitory Concentration
Description: as §1, §2

Klebsiella sp. = tested on: Klebsiella sp.
Description: as §1, §2

[3] = strain 265A, read-out: Minimum Inhibitory Concentration
[4] = strain EB5, read-out: Minimum Inhibitory Concentration
[5] = read-out: Minimum Inhibitory Concentration
[6] = strain SE3, read-out: Minimum Inhibitory Concentration
[7] = strain 1335, read-out: Minimum Inhibitory Concentration
[8] = strain X514, read-out: Minimum Inhibitory Concentration
[9] = strain Ps18, read-out: Minimum Inhibitory Concentration
[10] = strain X239, read-out: Minimum Inhibitory Concentration
[11] = strain X528, read-out: Minimum Inhibitory Concentration
[12] = strain EPI1, read-out: Minimum Inhibitory Concentration
[13] = strain EPI2, read-out: Minimum Inhibitory Concentration
[14] = strain EC14, read-out: Minimum Inhibitory Concentration
[15] = strain N10, read-out: Minimum Inhibitory Concentration
[16] = strain V41, read-out: Minimum Inhibitory Concentration
[17] = strain X1.1, read-out: Minimum Inhibitory Concentration
[18] = strain X400, read-out: Minimum Inhibitory Concentration
[19] = strain KAE, read-out: Minimum Inhibitory Concentration
[20] = strain X26, read-out: Minimum Inhibitory Concentration
[21] = strain X93, read-out: Minimum Inhibitory Concentration
[22] = strain TEM, read-out: Minimum Inhibitory Concentration

SMILES | MIC (Streptococcus Group D; strain 9960) [mg/L] | MIC (Streptococcus Group D; strain X66) [mg/L] | MIC [1] [mg/L] | MIC (Citrobacter freundii) [mg/L] | MIC (Enterobacter aerogenes; strain EB17) [mg/L] | MIC (Enterobacter cloacae; [3]) [mg/L] | MIC (Enterobacter cloacae; [4]) [mg/L] | MIC (Serratia marcescens; [6]) [mg/L] | MIC (Salmonella sp.; [7]) [mg/L] | MIC (Salmonella sp.; [8]) [mg/L] | MIC (Pseudomonas aeruginosa; [9]) [mg/L] | MIC (Pseudomonas aeruginosa; [10]) [mg/L] | MIC (Pseudomonas aeruginosa; [11]) [mg/L] | MIC [2, 12] [mg/L] | MIC [2, 13] [mg/L] | MIC (Streptococcus pneumoniae) [mg/L] | MIC (Escherichia coli; [14]) [mg/L] | MIC (Escherichia coli; [15]) [mg/L] | MIC (Staphylococcus aureus; [5]) [mg/L] | MIC (Staphylococcus aureus; [16]) [mg/L] | further results
CO/N=C(\C(=O)N[C@@H]1C(=O)N2C(C(=O)O)=C(CSc3nnnn3Cc3nnnn3C)CS[C@H]12)c1csc(N)n1 [F] | 16 (≈ 27 µM) | > 128 | 128 (≈ 216 µM) | 16 (≈ 27 µM) | 0.25 (≈ 0.421 µM) | 32 (≈ 53.9 µM) | 1 (≈ 1.68 µM) | 0.5 (≈ 0.842 µM) | 0.5 (≈ 0.842 µM) | 0.25 (≈ 0.421 µM) | 32 (≈ 53.9 µM) | 32 (≈ 53.9 µM) | 32 (≈ 53.9 µM) | 8 (≈ 13.5 µM) | 32 (≈ 53.9 µM) | 0.015 (≈ 0.0253 µM) | 0.06 (≈ 0.101 µM) | 0.25 (≈ 0.421 µM) | 8 (≈ 13.5 µM) | 4 (≈ 6.74 µM) | MIC (Enterobacter aerogenes): 0.125 mg/L (≈ 0.211 µM); Minimum Inhibitory Concentration (Enterobacter aerogenes; strain C32): .125 µg/mL; MIC (Serratia marcescens; [5]): 0.125 mg/L (≈ 0.211 µM); MIC (Haemophilus influenzae): 0.125 mg/L (≈ 0.211 µM); Minimum Inhibitory Concentration (Haemophilus influenzae; strain 251, resistant strain): .125 µg/mL; MIC (Escherichia coli; [5]): 0.125 mg/L (≈ 0.211 µM); MIC (Staphylococcus aureus; [17]): 2 mg/L (≈ 3.37 µM); MIC (Staphylococcus aureus; [18]): > 128 mg/L; MIC (Proteus inconstans): 0.5 mg/L (≈ 0.842 µM); MIC (Shigella sonnei): 0.125 mg/L (≈ 0.211 µM); MIC (Streptococcus Group A): 0.03 mg/L (≈ 0.0505 µM); MIC (Proteus rettgeri; strain C24): 0.25 mg/L (≈ 0.421 µM); MIC (Proteus rettgeri; strain PR7): 0.03 mg/L (≈ 0.0505 µM); MIC (Proteus morganii): 0.125 mg/L (≈ 0.211 µM); MIC (Klebsiella sp.; [19]): 4 mg/L (≈ 6.74 µM); MIC (Klebsiella sp.; [20]): 0.06 mg/L (≈ 0.101 µM)
CCN1CCN(C(=O)N[C@@H](C(=O)N[C@@H]2C(=O)N3C(C(=O)O)=C(CSc4nnnn4Cc4nnn[nH]4)CS[C@H]23)c2ccc(O)cc2)C(=O)C1=O [D, 7-[α-(4-Ethylpiperazin-2,3-dione-1-ylcarbonylamino)-α-(4-hydroxyphenyl)acetamido]-3-[1-(1H-tetrazole-5-ylmethyl)-1H-tetrazole-5-ylthiomethyl]-3-cephem-4-carboxylic acid] | 64 (≈ 89.7 µM) | 128 (≈ 179 µM) | 32 (≈ 44.8 µM) | 32 (≈ 44.8 µM) | 0.5 (≈ 0.701 µM) | 128 (≈ 179 µM) | 2 (≈ 2.8 µM) | 4 (≈ 5.6 µM) | 4 (≈ 5.6 µM) | 2 (≈ 2.8 µM) | 8 (≈ 11.2 µM) | 4 (≈ 5.6 µM) | 8 (≈ 11.2 µM) | 8 (≈ 11.2 µM) | 32 (≈ 44.8 µM) | 0.25 (≈ 0.35 µM) | 0.125 (≈ 0.175 µM) | 2 (≈ 2.8 µM) | 32 (≈ 44.8 µM) | 16 (≈ 22.4 µM) | MIC (Enterobacter aerogenes; strain C32): 2 mg/L (≈ 2.8 µM); MIC (Enterobacter aerogenes; strain X68): 0.25 mg/L (≈ 0.35 µM); MIC (Serratia marcescens; [21]): 1 mg/L (≈ 1.4 µM); MIC (Haemophilus influenzae; strain 251, resistant strain): 0.015 mg/L (≈ 0.021 µM); MIC (Haemophilus influenzae; strain Brun, sensitive strain): 0.015 mg/L (≈ 0.021 µM); MIC (Escherichia coli; [22]): 16 mg/L (≈ 22.4 µM); MIC (Staphylococcus aureus; [17]): 4 mg/L (≈ 5.6 µM); MIC (Staphylococcus aureus; [18]): > 128 mg/L; MIC (Proteus inconstans): 2 mg/L (≈ 2.8 µM); MIC (Shigella sonnei): 0.25 mg/L (≈ 0.35 µM); MIC (Streptococcus Group A): 0.5 mg/L (≈ 0.701 µM); MIC (Proteus rettgeri; strain C24): 8 mg/L (≈ 11.2 µM); MIC (Proteus rettgeri; strain PR7): 4 mg/L (≈ 5.6 µM); MIC (Proteus morganii; strain PR15): 1 mg/L (≈ 1.4 µM); MIC (Klebsiella sp.; [19]): > 128 mg/L; MIC (Klebsiella sp.; [20]): 1 mg/L (≈ 1.4 µM)
Cn1nnnc1Cn1nnnc1SCC1=C(C(=O)O)N2C(=O)[C@@H](NC(=O)Cc3cccs3)[C@H]2SC1 [B] | 64 (≈ 120 µM) | 128 (≈ 239 µM) | 8 (≈ 15 µM) | > 128 | 16 (≈ 29.9 µM) | > 128 | > 128 | > 128 | 1 (≈ 1.87 µM) | 0.5 (≈ 0.935 µM) | > 128 | > 128 | > 128 | 4 (≈ 7.48 µM) | 4 (≈ 7.48 µM) | 2 (≈ 3.74 µM) | 2 (≈ 3.74 µM) | 4 (≈ 7.48 µM) | 4 (≈ 7.48 µM) | 2 (≈ 3.74 µM) | MIC (Enterobacter aerogenes; strain C32): 32 mg/L (≈ 59.9 µM); MIC (Enterobacter aerogenes; strain X68): 0.5 mg/L (≈ 0.935 µM); MIC (Serratia marcescens; [21]): > 128 mg/L; MIC (Haemophilus influenzae; strain 76, resistant strain): 0.5 mg/L (≈ 0.935 µM); MIC (Haemophilus influenzae; strain C.L., sensitive strain): 1 mg/L (≈ 1.87 µM); MIC (Escherichia coli; [22]): 8 mg/L (≈ 15 µM); MIC (Staphylococcus aureus; [17]): 0.5 mg/L (≈ 0.935 µM); MIC (Staphylococcus aureus; [18]): 32 mg/L (≈ 59.9 µM); MIC (Proteus inconstans): 64 mg/L (≈ 120 µM); MIC (Shigella sonnei): 4 mg/L (≈ 7.48 µM); MIC (Streptococcus Group A): 1 mg/L (≈ 1.87 µM); MIC (Proteus rettgeri; strain C24): 8 mg/L (≈ 15 µM); MIC (Proteus rettgeri; strain PR7): 4 mg/L (≈ 7.48 µM); MIC (Proteus morganii; strain PR15): 64 mg/L (≈ 120 µM); MIC (Klebsiella sp.; [19]): > 128 mg/L; MIC (Klebsiella sp.; [20]): 0.5 mg/L (≈ 0.935 µM)
